What was measured:
[1] = biological target: Human recombinant GST-PI3Kγ (Homo sapiens, UniProt P48736); experiment: High throughput PI3K lipid kinase assay (SPA, neomycin-coated beads); type: biochemical
Description: a) High Throughput PI3K Lipid Kinase Assay (Binding Assay):
The efficacy of compounds of the invention in inhibiting the PI3K induced-lipid phosphorylation may be tested in the following binding assay.
The assay combines the scintillation proximity assay technology (SPA, Amersham) with the capacity of neomycin (a polycationic antibiotic) to bind phospholipids with high affinity and specificity. The Scintillation Proximity Assay is based on the properties of weakly emitting isotopes (such as ^3H, ^125I, ^33P). Coating SPA beads with neomycin allows the detection of phosphorylated lipid substrates after incubation with recombinant PI3K and radioactive ATP in the same well, by capturing the radioactive phospholipids to the SPA beads through their specific binding to neomycin.
To a 384 wells MTP containing 5 μl of the test compound of Formula (I) (solubilized in 6% DMSO; to yield a concentration of 100, 30, 10, 3, 1, 0.3, 0.1, 0.03, 0.01, 01 μM of the test compound), the following assay components are added. 1) 5 μl (58 ng) of Human recombinant GST-PI3Kγ (in Hepes 40 mM, pH 7.4, DTT 1 mM and ethylenglycol 5%) 2) 10 μl of lipid micelles and 3) 10 μl of Kinase buffer ([^33P]γ-ATP 45 μM/60 nCi, MgCl2 30 mM, DTT 1 mM, β-Glycerophosphate 1 mM, Na3VO4 100 μM, Na Cholate 0.3%, in Hepes 40 mM, pH 7.4). After incubation at room temperature for 180 minutes, with gentle agitation, the reaction is stopped by addition of 60 μl of a solution containing 100 μg of neomycin-coated PVT SPA beads in PBS containing ATP 10 mM and EDTA 5 mM. The assay is further incubated at room temperature for 60 minutes with gentle agitation to allow binding of phospholipids to neomycin-SPA beads. After precipitation of the neomycin-coated PVT SPA beads for 5 minutes at 1500×g, radioactive PtdIns(3)P is quantified by scintillation counting in a Wallac MicroBeta™ plate counter.
The values indicated in Table II below refer to the IC50 (μM) with respect to PI3Kγ, i.e. the amount necessary to achieve 50% inhibition of said target. Said values show a considerable inhibitory potency of thiazole compounds with regard to PI3Kγ.

[2] = tested on: PI3K induced Akt/PKB phosphorylation in Raw 264-7 macrophages; experiment: Cell based ELISA of Akt/PKB phosphorylation in macrophages after Complement 5a stimulation; conditions: Mus musculus, RAW264.7, 5 min, 50 nM Complement 5a for 5 minutes, read-out: Cell Assay (P-Akt, Elisa) IC50
Experimental: b) Cell Based ELISA to Monitor PI3K Inhibition:
The efficacy of compounds of the invention in inhibiting the PI3K induced Akt/PKB phosphorylation may be tested in the following cell based assay.
Measurement of Akt/PKB phosphorylation in macrophages after stimulation with Complement 5a: Raw 264: Raw 264-7 macrophages (cultured in DMEM-F12 medium containing 10% Fetal Calf serum and antibiotics) are plated at 20,000 cells/well in a 96 MTP 24 h before cell stimulation. Prior to the stimulation with 50 nM of Complement 5a during 5 minutes, Cells are serum starved for 2 h, and pretreated with inhibitors for 20 minutes. After stimulation cells are fixed in 4% formaldehyde for 20 minutes and washed 3 times in PBS containing 1% Triton X-100 (PBS/Triton). Endogenous peroxidase is blocked by a 20 minutes incubation in 0.6% H2O2 and 0.1% Sodium Azide in PBS/Triton and washed 3 times in PBS/Triton. Cells are then blocked by 60 minutes incubation with 10% fetal calf serum in PBS/Triton. Next, phosphorylated Akt/PKB is detected by an overnight incubation at 4° C. with primary antibody (anti phospho Serine 473 Akt IHC, Cell Signaling) diluted 800-fold in PBS/Triton, containing 5% bovine serum albumin (BSA). After 3 washes in PBS/Triton, cells are incubated for 60 minutes with a peroxidase conjugated goat-anti-rabbit secondary antibody (1/400 dilution in PBS/Triton, containing 5% BSA), washed 3 times in PBS/Triton, and 2 times in PBS and further incubated in 100 μl of luminescent substrate reagent solution (Pierce) for 2 minutes, followed by the reading (1 s/well).
The values indicated in Table III below reflect the percentage of inhibition of AKT phoshorylation as compared to basal level. Said values show a clear effect of the thiazole compounds on the activation of AKT phosphorylation in macrophages.

[3] = tested on: Neutrophil recruitment; experiment: Thioglycollate-induced peritoneal cavity cell recruitment model, neutrophils; type: in vivo, C3H mice; conditions: 10 mg/kg orally, lavage 4 h after thioglycollate
Experimental: Thioglycollate-Induced Pertioneal Cavity Cell Recruitment Model
The in vivo efficacy of compounds of the invention in inhibiting the migration of leukocytes upon intraperitoneal challenge of thioglycollate may be tested with the following assay.
8-10 weeks old female C3H mice are fasted during 18 hours. 15 minutes prior the intraperitoneal injection of thioglycollate (1.5%, 40 ml/kg), the mice are treated orally with Thiazoles of Formula (I). Control mice receive CMC/Tween as vehicle (10 ml/kg). The mice are then sacrificed by CO2 inhalation and the peritoneal cavity is washed two times with 5 ml of ice-cold PBS/1 mM EDTA. The lavages are done 4 hours or 48 hours after thioglycollate challenge to evaluate neutrophils or macrophages recruitment, respectively. The white blood cells (neutrophils, lymphocytes or macrophages) are counted using a Beckman Coulter® A ^cT 5diff™. Dexamethasone is used as reference drug.

Sequence of Human recombinant GST-PI3Kγ (P48736 whole entry): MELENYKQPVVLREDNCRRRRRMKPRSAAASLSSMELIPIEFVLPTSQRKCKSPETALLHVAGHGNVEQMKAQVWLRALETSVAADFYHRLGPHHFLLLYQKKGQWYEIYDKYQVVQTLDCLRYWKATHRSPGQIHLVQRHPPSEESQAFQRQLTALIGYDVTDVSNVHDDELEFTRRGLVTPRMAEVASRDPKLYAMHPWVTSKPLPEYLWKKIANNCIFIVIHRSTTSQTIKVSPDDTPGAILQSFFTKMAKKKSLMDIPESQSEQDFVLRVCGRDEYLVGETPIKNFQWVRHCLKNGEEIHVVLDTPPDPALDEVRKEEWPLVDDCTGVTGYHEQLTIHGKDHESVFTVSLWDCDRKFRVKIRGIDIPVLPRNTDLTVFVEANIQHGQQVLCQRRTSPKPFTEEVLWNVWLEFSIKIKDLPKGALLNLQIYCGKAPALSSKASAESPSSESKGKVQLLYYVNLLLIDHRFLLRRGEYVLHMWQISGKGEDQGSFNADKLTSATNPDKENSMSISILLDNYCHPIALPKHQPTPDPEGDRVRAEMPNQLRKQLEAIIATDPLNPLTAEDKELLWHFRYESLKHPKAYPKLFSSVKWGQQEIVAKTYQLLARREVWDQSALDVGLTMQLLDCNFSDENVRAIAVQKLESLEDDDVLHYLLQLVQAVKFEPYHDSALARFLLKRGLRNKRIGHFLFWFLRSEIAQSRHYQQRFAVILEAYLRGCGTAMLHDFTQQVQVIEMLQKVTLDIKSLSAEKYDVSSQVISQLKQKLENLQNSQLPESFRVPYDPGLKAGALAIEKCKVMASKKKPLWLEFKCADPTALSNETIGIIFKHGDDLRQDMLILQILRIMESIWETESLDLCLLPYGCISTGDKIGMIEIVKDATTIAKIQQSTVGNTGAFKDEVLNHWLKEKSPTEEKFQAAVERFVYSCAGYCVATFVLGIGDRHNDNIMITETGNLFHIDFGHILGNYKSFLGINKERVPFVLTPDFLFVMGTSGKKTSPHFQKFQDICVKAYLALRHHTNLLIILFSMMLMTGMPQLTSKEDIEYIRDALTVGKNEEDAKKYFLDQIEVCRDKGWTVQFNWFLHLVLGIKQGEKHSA

| IC50 [1] [nM] | IC50 [2] [nM] | Structure (SMILES) | % inhibition of Neutrophil recruitment at 10 mg/kg after 4 h [3] [%] |
| --- | --- | --- | --- |
| 119 | 660 | C#CCNS(=O)(=O)c1ccc(-c2sc(NC(C)=O)nc2C)s1 [Example 1, N-(4-methyl-5-{5-[(prop-2-yn-1-ylamino)sulfonyl]-2-thienyl}-1,3-thiazol-2-yl)acetamide] | – |
| 396 | – | CC(=O)Nc1nc(C)c(-c2ccc(S(=O)(=O)N3CCN(C(C)=O)CC3)s2)s1 [Example 2, N-(5-{5-[(4-acetylpiperazin-1-yl)sulfonyl]-2-thienyl}-4-methyl-1,3-thiazol-2-yl)acetamide] | – |
| 298 | – | CC(=O)Nc1nc(C)c(-c2ccc(S(=O)(=O)NC3CCN(C)CC3)s2)s1 [Example 4, N-[4-methyl-5-(5-{[(1-methylpiperidin-4-yl)amino]sulfonyl}-2-thienyl)-1,3-thiazol-2-yl]acetamide] | – |
| 20 | – | CC(=O)Nc1nc(C)c(-c2ccc(S(=O)(=O)N(C)CCN(C)C)s2)s1 [Example 5, N-[5-(5-{[[2-(dimethylamino)ethyl](methyl)amino]sulfonyl}-2-thienyl)-4-methyl-1,3-thiazol-2-yl]acetamide] | – |
| 1200 | – | COC(=O)CCCC(=O)Nc1nc(C)c(-c2ccc(S(=O)(=O)NCCN3CCOCC3)s2)s1 [Example 7, methyl 5-{[4-methyl-5-(5-{[(2-morpholin-4-ylethyl)amino]sulfonyl}-2-thienyl)-1,3-thiazol-2-yl]amino}-5-oxopentanoate] | – |
| 170 | – | CC(=O)Nc1nc(C)c(-c2ccc(S(=O)(=O)N3CCN(C)CC3)s2)s1 [Example 8, N-(4-methyl-5-{5-[(4-methylpiperazin-1-yl)sulfonyl]-2-thienyl}-1,3-thiazol-2-yl)acetamide] | – |
| 158 | 850 | CC(=O)Nc1nc(C)c(-c2ccc(S(=O)(=O)NCCN3CCOCC3)s2)s1 [Example 9, N-[4-methyl-5-(5-{[(2-morpholin-4-ylethyl)amino]sulfonyl}-2-thienyl)-1,3-thiazol-2-yl]acetamide] | 48 |
| 289 | 1290 | CC(=O)Nc1nc(C)c(-c2ccc(S(=O)(=O)NCCCN(C)C)s2)s1 [Example 10, N-{5-[5-({[3-(dimethylamino)propyl]amino}sulfonyl)-2-thienyl]-4-methyl-1,3-thiazol-2-yl}acetamide] | 58 |
| 200 | – | CC(=O)Nc1nc(C)c(-c2ccc(S(=O)(=O)N3CCNCC3)s2)s1 [Example 11, N-{4-methyl-5-[5-(piperazin-1-ylsulfonyl)-2-thienyl]-1,3-thiazol-2-yl}acetamide] | – |
| 522 | – | CNC(=O)CNS(=O)(=O)c1ccc(-c2sc(NC(C)=O)nc2C)s1 [Example 12, N~2~-({5-[2-(acetylamino)-4-methyl-1,3-thiazol-5-yl]-2-thienyl}sulfonyl)-N~1~-methylglycinamide] | – |
| 109 | – | CC(=O)NCCNS(=O)(=O)c1ccc(-c2sc(NC(C)=O)nc2C)s1 [Example 13, N-{5-[5-({[2-(acetylamino)ethyl]amino}sulfonyl)-2-thienyl]-4-methyl-1,3-thiazol-2-yl}acetamide] | – |
| 198 | – | CC(=O)Nc1nc(C)c(-c2ccc(S(=O)(=O)NCC3COC(C)(C)O3)s2)s1 (stereo not drawn) [Example 14, N-{5-[5-({[(2,2-dimethyl-1,3-dioxolan-4-yl)methyl]amino}sulfonyl)-2-thienyl]-4-methyl-1,3-thiazol-2-yl}acetamide] | – |
| 70 | – | COC(=O)[C@H](CO)NS(=O)(=O)c1ccc(-c2sc(NC(C)=O)nc2C)s1 [Example 15, methyl N-({5-[2-(acetylamino)-4-methyl-1,3-thiazol-5-yl]-2-thienyl}sulfonyl)serinate] | – |
| 373 | – | CC(=O)Nc1nc(C)c(-c2ccc(S(=O)(=O)N[C@@H](CO)C(=O)O)s2)s1 [Example 16, N-({5-[2-(acetylamino)-4-methyl-1,3-thiazol-5-yl]-2-thienyl}sulfonyl)serine] | – |
| 71 | – | CC(=O)Nc1nc(C)c(-c2ccc(S(=O)(=O)NCC(O)CO)s2)s1 (stereo not drawn) [Example 17, N-[5-(5-{[(2,3-dihydroxypropyl)amino]sulfonyl}-2-thienyl)-4-methyl-1,3-thiazol-2-yl]acetamide] | – |
| 105 | – | CC(=O)Nc1nc(C)c(-c2ccc(S(=O)(=O)N(C)C)s2)s1 [Example 18, N-(5-{5-[(dimethylamino)sulfonyl]-2-thienyl}-4-methyl-1,3-thiazol-2-yl)acetamide] | – |
| 28 | 480 | CC(=O)Nc1nc(C)c(-c2csc(S(=O)(=O)NCCN(C)C)c2)s1 [Example 23, N-{5-[5-({[2-(dimethylamino)ethyl]amino}sulfonyl)-3-thienyl]-4-methyl-1,3-thiazol-2-yl}acetamide] | – |
| 16 | – | CC(=O)Nc1nc(C)c(-c2csc(S(=O)(=O)NCCN3CCOCC3)c2)s1 [Example 24, N-[4-methyl-5-(5-{[(2-morpholin-4-ylethyl)amino]sulfonyl}-3-thienyl)-1,3-thiazol-2-yl]acetamide] | – |
| 67 | – | CC(=O)Nc1nc(C)c(-c2csc(S(=O)(=O)N3CCNCC3)c2)s1 [Example 26, N-{4-methyl-5-[5-(piperazin-1-ylsulfonyl)-3-thienyl]-1,3-thiazol-2-yl}acetamide] | – |
| 78 | – | CC(=O)Nc1nc(C)c(-c2csc(S(=O)(=O)NC3CCN(C)CC3)c2)s1 [Example 28, N-[4-methyl-5-(5-{[(1-methylpiperidin-4-yl)amino]sulfonyl}-3-thienyl)-1,3-thiazol-2-yl]acetamide] | – |
| 28 | 460 | CC(=O)Nc1nc(C)c(-c2csc(S(=O)(=O)N3CCN(C)CC3)c2)s1 [Example 29, N-(4-methyl-5-{5-[(4-methylpiperazin-1-yl)sulfonyl]-3-thienyl}-1,3-thiazol-2-yl)acetamide] | 28 |
| 27 | > 30000 | CC(=O)Nc1nc(C)c(-c2csc(S(=O)(=O)N3CCOCC3)c2)s1 [Example 46, N-{4-methyl-5-[5-(morpholin-4-ylsulfonyl)-3-thienyl]-1,3-thiazol-2-yl}acetamide] | 36 |
| – | 150 | CC(=O)Nc1nc(C)c(-c2csc(S(=O)(=O)N3CCCC(O)C3)c2)s1 (stereo not drawn) [Example 48, N-(5-{5-[(3-hydroxypiperidin-1-yl)sulfonyl]-3-thienyl}-4-methyl-1,3-thiazol-2-yl)acetamide] | – |
